Columns and labels:
Type in all cases: cell-based, human
ATR-H cells [1] = assay: Free cellular H2S measurement by HPLC after MBB derivatization, ATR-H cells
Method: (§1) Cells: The human colon cancer cell line DLD1 cell line containing wild-type ATR (ATR cells) or the ATR-Seckel knock-in hypomorphic mutation (ATR-H cells) were a kind gift from Dr. Fred Bunz of the Department of Radiation Oncology and Molecular Radiation Sciences, The Johns Hopkins University School of Medicine. The cells were cultured in DMEM with 5% FBS, 1% penicillin/streptomycin.
(§2) H2S measurements: Bioavailable sulfide levels were measured as previously reported. Levels of free sulfide (H2S) in ATR and ATR-H cells were measured by high performance liquid chromatography (HPLC) after derivatization with excess MBB as stable products sulfide-dibimane (SDB). Briefly, ATR and ATR-H cells were homogenized in Tris.HCl buffer [100 mM Tris.HCl (pH 9.5) and 0.1 mM diethylenetriaminepentaacetic acid (DTPA)]. Cell lysates were derivatized with MBB and then measured by Shimadzu Prominence 20 A equipment with RF-10AXL (excitation wavelength: […] and emission wavelength: […]) and an Eclipse XDB-C18 column (4.6×50 mm, 5 μm). Typical retention times of SDB were 16.5 min. H2S levels were calculated according to the standard SDB.

ATR cells [2] = assay: Free cellular H2S measurement by HPLC after MBB derivatization, ATR cells
Method: as §1, §2

[3] = test system: DLD1 cell line containing the ATR-Seckel knock-in hypomorphic mutation (ATR-H cells); assay: Colony forming-efficiency assay, ATR-H cells
Method: as §1
(§3) Colony forming-efficiency assay: Colony forming-efficiency (CEFA) experiments were performed. In brief, exponentially growing cells were plated for 12 h at 2000 cells/100 mm tissue culture dish in 10 ml appropriate media. The cells were pretreated for 2 h with either an H2S inhibitor (β-cyano-1-alanine, 1 mM) or donor (diallyl trisulfide, 20 uM), washed 3× with 1× phospate buffered saline, the media replaced, and the cells were immediately treated with for 15 min with 50, 100, and 200 μM t-butyl hydroperoxide (t-BOOH). Following treatment, the cells were washed 3× with phosphate-buffered saline, the media replaced and the cells cultured for 11 days. The resulting colonies were fixed and stained by water: methanol addition (1:1) containing crystal violet (1 g/l). “Colonies” consisted of cell clusters containing greater than 50 cells when counted by dissecting microscopy.

[4] = test system: DLD1 cell line containing wild-type ATR (ATR cells); assay: Colony forming-efficiency assay, ATR wild-type cells; conditions: 11 days; for sensitivity of colony formation to t-BOOH after H2S inhibitor pretreatment: 2 h 1 mM β-cyano-l-alanine, then 15 min 50, 100 or 200 μM t-BOOH
Method: as §1, §3

ATR-pS435 in ATR-H cells = assay: Western blot of ATR serine 435 phosphorylation, ATR-H cells
Method: as §1
(§4) Western blotting: To prepare whole cell lysates from ATR and ATR-H cells, the cells were grown in 6-well plates, the medium was removed, and 300 μl of SDS sample buffer (62.5 mM Tris-HCl (pH 6.8), 2% w/v SDS, 10% glycerol, 50 mM dithiothreitol, 0.1% w/v bromphenol blue) was added to each well. Following lysis in SDS sample buffer, lysates were harvested with cell scrapers and collected in Eppendorf tubes. The lysates were boiled, centrifuged, and frozen at −20° C. until gel electrophoresis was performed. The protein concentrations were measured by Bio-rad DC protein assay. Twenty […] of total protein supernatant extract was mixed with 2×SDS loading buffer according to protein concentration. Lysates separated by SDS-PAGE were transferred to polyvinylidene difluoride membranes, and membranes were blocked in 5% nonfat dry milk before the addition of primary antibodies. Densitometry was performed with ImageJ software version 1.45 s. All western blots were performed at least in triplicate.

ATR-pS435 in ATR cells = assay: Western blot of ATR serine 435 phosphorylation, ATR cells
Method: as §1, §4

[5] = test system: CHK1 serine-345 phosphorylation in ATR cells; assay: Western blot of CHK1 serine 345 phosphorylation, ATR cells
Method: as §1, §4

ATR-H cells [6] = assay: dsDNA breaks in metaphase chromosomal preparations, ATR-H cells
Method: as §1
(§5) Chromosomal preparation and analysis: One 100-mm tissue culture plate/treatment of logarithmically growing ATR and ATR-H cells at 50% confluence were treated with or without, 1 mM H2S inhibitor β-cyano-l-alanine for two hours, followed by a 15-minute treatment with 10 μM t-BOOH. Following this treatment, the cells were washed 3× with phosphate-buffered saline, the media replaced, and the cells cultured for 1 h. Colcemid (100 ng/ml) was then added for 4 h and the cells harvested by washing 2× in 1×PBS, followed by trypsinization and transference to a 15 ml tube. Two-ml of DMEM with 5% FBS was added/tube and the cells were pelleted 5 min at 500×g. The cells were re-suspended in 5 ml […] and incubated 15 min at 37° C. About 200 μl of fresh methanol: glacial acetic acid at 3:1 (Carnoy's fixative) was added, the cells gently vortexed, and pelleted for 5 min at 500×g. The supernatant was removed and 5 ml of Carnoy's fixative added with gentle vortexing. The cells were pelleted for 5 min at 500×g, the supernatant removed, and 5 ml of Carnoy's fixative was added with gentle vortexing. Chromosomal preparations were made by pelleting the preparations for 5 min at 500×g, removing the supernatant, dropping on slides, drying for 30 min at 90° C., Giemsa staining, washing, and cover-slipping. Each data point represents 5000 individual chromosomal observations preformed under oil immersion microscopy done in triplicate.

ATR cells [7] = assay: dsDNA breaks in metaphase chromosomal preparations, ATR cells; conditions: 2 h 1 mM β-cyano-l-alanine followed by 10 μM t-BOOH
Method: as §1
as §5, with “The cells were pelleted for 5 min at 500×g, the supernatant removed, and 5 ml of Carnoy's fixative was added with gentle vortexing. Chromosomal preparations were made by pelleting the preparations for 5 min at 500×g, removing the supernatant, dropping on slides, drying for 30 min at 90° C., Giemsa staining, washing, and cover-slipping. Each data point represents 5000 individual chromosomal observations preformed under oil immersion microscopy done in triplicate.” left out

[8] = test system: CHK1 serine-345 phosphorylation in ATR-H cells; assay: Western blot of CHK1 serine 345 phosphorylation, ATR-H cells; conditions: 2 h 1 mM β-cyano-l-alanine with or without 15 min 10 μM t-BOOH
Method: as §1, §4

[9] = ATR wild-type cells, 2 h 1 mM β-cyano-l-alanine

Nc1nc(N)c(N=O)c(OCC2CCCCC2)n1 [NU6027]
cellular free H2S concentration (ATR-H cells [1]; 2 h 12 μM NU6027): but not the ATR-H cells
cellular free H2S concentration (ATR cells [2]; 2 h 12 μM NU6027): significantly decreased

C=CCSSSCC=C [diallyl trisulfide]
colony formation, H2S donor pretreatment ([3]; 2 h 20 μM diallyl trisulfide, 11 days): significantly decreased
colony formation, H2S donor pretreatment ([4]; 2 h 20 μM diallyl trisulfide): significantly decreased
ATR-pS435 level (ATR-pS435 in ATR-H cells; 2 h 20 μM diallyl trisulfide): not affected by any treatment
ATR-pS435 level (ATR-pS435 in ATR cells; ATR wild-type cells, 2 h 20 μM diallyl trisulfide): inhibited this phosphorylation
CHK1 serine-345 phosphorylation after t-BOOH, H2S donor pretreatment ([5]; ATR wild-type cells, H2S donor pretreatment, then t-BOOH): did not significantly alter
cellular free H2S concentration (ATR cells [2]; 2 h 20 μM diallyl trisulfide): suppressed

CC(C)(C)OO [t-BOOH, t-butyl hydroperoxide]
colony formation suppression by t-BOOH ([3]; 15 min 50, 100 or 200 μM t-BOOH, 11 days): colony formation suppression was t-BOOH dose-dependent
colony formation suppression by t-BOOH ([4]; 15 min 50, 100 or 200 μM t-BOOH): colony formation suppression was t-BOOH dose-dependent
dsDNA break formation (ATR-H cells [6]; 15 min 10 μM t-BOOH alone): significantly increased dsDNA break formation
ATR-pS435 level (ATR-pS435 in ATR-H cells; 100 μM t-BOOH 15 min, then 45 min in media): not increased
induction of ATR-pS435 levels (ATR-pS435 in ATR cells; ATR wild type cells, 100 μM t-BOOH 15 min, then 45 min in media): ~50%

N#CC[C@H](N)C(=O)O [β-cyano-l-alanine]
cellular free H2S concentration (ATR-H cells [1]; 2 h 1 mM β-cyano-l-alanine): significantly lowered
dsDNA breaks (ATR cells [7]): significantly increased dsDNA breaks
colony formation, H2S inhibitor pretreatment with 200 μM t-BOOH versus 200 μM t-BOOH alone ([3]; 200 μM t-BOOH): not significantly different
colony formation, H2S inhibitor by itself ([3]; 2 h 1 mM β-cyano-l-alanine, no t-BOOH, 11 days): suppressed ATR-H cell colony formation
sensitivity of colony formation to t-BOOH after H2S inhibitor pretreatment ([3]; 2 h 1 mM β-cyano-l-alanine, then 15 min 50, 100 or 200 μM t-BOOH, 11 days, compared to ATR wild-type cells): significantly more sensitive to the same t-BOOH exposures
CHK1 serine-345 phosphorylation level changes [8]: failed to show significant CHK1 serine-345 phosphorylation level changes
sensitivity of colony formation to t-BOOH after H2S inhibitor pretreatment [4]: slightly increased the sensitivity of the ATR cells
sensitivity of colony formation to t-BOOH after H2S inhibitor pretreatment ([4]; listed as H2S inhibitor): only significantly potentiated t-BOOH toxicity at the two higher doses
dsDNA breaks (ATR-H cells [6]; 1 mM β-cyano-l-alanine alone): significantly increased dsDNA breaks
dsDNA breaks (ATR-H cells [6]; 2 h 1 mM β-cyano-l-alanine followed by 10 μM t-BOOH): significantly increased dsDNA breaks
ATR-pS435 level (ATR-pS435 in ATR-H cells; 2 h 1 mM β-cyano-l-alanine): not affected by any treatment
ATR-pS435 level (ATR-pS435 in ATR cells; [9]): increased ATR-pS435
increase of ATR-pS435 compared to untreated cell phosphorylation levels (ATR-pS435 in ATR cells; [9]): ~50%
CHK1 serine-345 phosphorylation after t-BOOH, with versus without H2S inhibitor pretreatment ([5]; ATR cells, 2 h 1 mM β-cyano-l-alanine, then 15 min 10 μM t-BOOH, harvest at 45 min): significantly increased
cellular free H2S concentration (ATR cells [2]; 2 h 1 mM β-cyano-l-alanine): significantly lowered
